Values of other authors as cited in patent US20050032876A1, “Pharmaceutical compositions comprising sumatriptan and metoclopramide, and methods of use thereof” (priority 2003, published 2005).

Conditions: rapidly pre-systemically metabolized; very short half-life of the order of only about 2 hours

half-life: about 2 hours
SMILES: CNS(=O)(=O)Cc1ccc2[nH]cc(CCN(C)C)c2c1 [Sumatriptan]
